Results on 16 molecules are retold here after patent publication US4493843A, “Indole and indoline carboxylic acid compounds and method of use” (May & Baker Limited, priority 1980, dated 1985).

The experiment deals with serum cholesterol and serum triglycerides. Briefly: Hypolipidaemic activity in rats (compound in diet, last 7 of 10 days). To be noted: Rattus norvegicus, po, 168 h, 0.2 % w/w dose in diet, 7 days. It counts as in vivo, Male Wistar rats. The procedure: Hypolipidaemic Activity in Rats
Male Wistar rats each weighing between 120 and 150 g were caged in groups of eight and fed a powdered diet for 10 days. For the last 7 days of that period the test compound was administered orally by mixing the compound in the diet and allowing the animals to feed normally. Food consumption was measured on day 9 for each group.
At noon on day 10 the animals were killed by inhalation of carbon dioxide from solid carbon dioxide. A sample of blood was removed by cardiac puncture and the serum cholesterol and serum triglycerides were analysed by means of an autoanalyser.
Control groups (receiving only the normal, unmedicated diet) were included with each test.
The percentage reductions in the concentrations of serum cholesterol and serum triglycerides were calculated by comparison with the simultaneous controls, for each concentration of the test compound used.

Setting [1] is: read-out: % change in serum cholesterol compared with control.
Setting [2] is: read-out: % change in serum triglycerides compared with control.

Where two headings read alike, the source gives them in different places.

As to `CCCCCCCCCCCCCCCCCCCCCCCc1cc2cc(C(=O)O)ccc2[nH]1` [Compound QQ, 2-(n-tricosyl)indole-5-carboxylic acid], the change in vivo at 0.2 % strength is, setting by setting: under setting [1], -16%; under setting [2], -36%.

For `CCCCCCCCCCCCCCCCC1CNc2cc(C(=O)OC)ccc21` (racemic) [Compound CFF, (RS)-methyl 3-(n-hexadecyl)indoline-6-carboxylate], the change in vivo at 0.2 % strength under setting [1] worked out at 6% and the change in vivo at 0.2 % strength under setting [2] was found to be 10%.

Take `CCCCCCCCCCC1CNc2cc(C(=O)O)ccc21` (racemic) [Compound BYY, (RS)-3-(n-decyl)indoline-6-carboxylic acid]: the change in vivo at 0.2 % strength was -23% under setting [1] and -50% under setting [2].

Turning to `CCCCCCCCCCCc1cc2ccc(C(=O)OCC)cc2[nH]1` [Compound FF, ethyl 2-(n-undecyl)indole-6-carboxylate], the change in vivo at 0.2 % strength runs as follows: under setting [1], -13%; under setting [2], -40%.

Regarding `CCCCCCCCCCCCCCCCc1c[nH]c2cc(C(=O)O)ccc12` [Compound BFF, 3-(n-hexadecyl)indole-6-carboxylic acid], the change in vivo at 0.2 % strength is 7% under setting [1] and -17% under setting [2].

As for `CCCCCCCCCCCCCCCCCc1cc2cc(C(=O)OC)ccc2[nH]1` [Compound AWW, methyl 2-(n-heptadecyl)indole-5-carboxylate], the change in vivo at 0.2 % strength under setting [1] is -24%.

As to `CCCCCCCCCCCCCCCc1cc2ccc(C(=O)OCCCC)cc2[nH]1` [Compound APP, n-butyl 2-(n-pentadecyl)indole-6-carboxylate], the change in vivo at 0.2 % strength is -2% under setting [1] and -20% under setting [2].

On to `CCCCCCCCCCCCCCCCCCC1CNc2cc(C(=O)O)ccc21` (racemic) [Compound CBB, (RS)-3-(n-octadecyl)indoline-6-carboxylic acid], for which the change in vivo at 0.2 % strength by setting is: under setting [1], 2%; under setting [2], -7%.

`CCCCCCCCc1c[nH]c2cc(C(=O)OC)ccc12` [Compound AZZ, methyl 3-(n-octyl)indole-6-carboxylate]: the change in vivo at 0.2 % strength reads like this: under setting [1], -18%; under setting [2], 24%.

With `CCCCCCCCCCC1Cc2cc(C(=O)O)ccc2N1` (racemic) [Compound ACC, (RS)-2-(n-decyl)indoline-5-carboxylic acid], the change in vivo at 0.2 % strength reads like this: under setting [1], -26%; under setting [2], -71%.

For `CCCCCCCCCCCCCCCCCCc1cc2ccc(C(=O)O)cc2[nH]1` [Compound V, 2-(n-octadecyl)indole-6-carboxylic acid], the change in vivo at 0.2 % strength under setting [1] is 3% and the change in vivo at 0.2 % strength under setting [2] is -1%.

In the case of `CCCCCCCCC1CNc2ccc(C(=O)O)cc21` (racemic) [Compound BQQ, (RS)-3-(n-octyl)indoline-5-carboxylic acid], the change in vivo at 0.2 % strength is 11% under setting [1] and 31% under setting [2].

Regarding `CCCCCCCCCCc1cc2cc(C(=O)O)ccc2[nH]1` [Compound M, 2-(n-decyl)indole-5-carboxylic acid], the change in vivo at 0.2 % strength is -26% under setting [1] and -65% under setting [2].

In the case of `CCCCCCCCCCCc1cc2ccc(C(=O)OCCCC)cc2[nH]1` [Compound GG, n-butyl 2-(n-undecyl)indole-6-carboxylate], the change in vivo at 0.2 % strength was -11% under setting [1] and -35% under setting [2].

For the molecule `CCCCCCCCCc1cc2cc(C(=O)O)ccc2[nH]1` [Compound O, 2-(n-nonyl)indole-5-carboxylic acid], the change in vivo at 0.2 % strength reads like this: under setting [1], -13%; under setting [2], -44%.

Consider `CCCCCCCCCCCCCCC1Cc2ccc(C(=O)O)cc2N1` (racemic) [Compound AGG, (RS)-2-(n-tetradecyl)indoline-6-carboxylic acid], for which the change in vivo at 0.2 % strength is -8% under setting [1] and -23% under setting [2].
